Key:
purified TRAAK channels = biological target: T1, purified TRAAK channels (Homo sapiens, UniProt Q9NYG8); assay: UV crosslinking and labeling of purified TRAAK channel; assay type: binding; details: TRAAK 3 μM, 254 nm UV 30 seconds, streptavidin-HRP detection
T1 sequence (Q9NYG8 1-393): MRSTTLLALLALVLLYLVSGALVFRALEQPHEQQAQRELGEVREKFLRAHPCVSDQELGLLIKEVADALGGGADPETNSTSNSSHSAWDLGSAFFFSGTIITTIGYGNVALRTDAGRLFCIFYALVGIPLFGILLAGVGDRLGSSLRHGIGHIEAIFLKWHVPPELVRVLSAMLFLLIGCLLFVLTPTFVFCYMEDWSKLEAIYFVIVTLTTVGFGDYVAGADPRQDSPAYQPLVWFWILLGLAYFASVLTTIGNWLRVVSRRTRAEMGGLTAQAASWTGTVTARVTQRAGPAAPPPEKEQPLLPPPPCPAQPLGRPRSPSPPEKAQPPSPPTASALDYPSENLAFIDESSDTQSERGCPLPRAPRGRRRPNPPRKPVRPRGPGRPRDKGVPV
Experimental: FIG. 15 Crosslinking and labeling of TRAAK channel with ML67-151; crosslinking of ML67-151 to purified TRAAK channels (3 μM) following exposure to 254 nm UV light for 30 seconds; left is SDS-PAGE of purified TRAAK, top middle is streptavidin-HRP detection following addition of clickable biotin; bottom middle is Ponceau S staining
Crosslinking of ML67-151 to purified TRAAK channels (3 μM) following exposure to 254 nm UV light for 30 seconds is shown in the top middle blot of FIG. 15, including streptavidin-HRP detection following addition of clickable biotin.

TREK-1 = biological target: T2, TREK-1 (Mus musculus, UniProt P97438); assay: Modulation of TREK-1 by select compounds (agonist activity), Table 3; assay type: cell-based, Murine; details: 50 μM
T2 construct: expressed in transfected cells
T2 sequence (P97438 1-411 isoform P97438-2): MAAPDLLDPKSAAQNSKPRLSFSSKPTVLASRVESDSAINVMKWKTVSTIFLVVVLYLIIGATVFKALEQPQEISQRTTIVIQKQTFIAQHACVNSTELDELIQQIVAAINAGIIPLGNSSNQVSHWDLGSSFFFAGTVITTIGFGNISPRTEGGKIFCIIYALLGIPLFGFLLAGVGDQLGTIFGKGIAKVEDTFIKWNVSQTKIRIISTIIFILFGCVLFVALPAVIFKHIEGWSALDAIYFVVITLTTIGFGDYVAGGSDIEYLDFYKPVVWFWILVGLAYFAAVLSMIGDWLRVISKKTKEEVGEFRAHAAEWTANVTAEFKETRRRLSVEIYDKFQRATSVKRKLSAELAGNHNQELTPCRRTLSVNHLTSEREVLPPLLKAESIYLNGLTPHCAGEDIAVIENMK
Experimental: Two-electrode voltage clamp recordings were performed from defolliculated stage V-VI Xenopus oocytes 24-48 hours after injection with 0.015-6.0 ng cRNA, using microelectrodes (0.3-3.0 MΩ) filled with 3M KCl. […] Recording solutions (mM): 2K (96 NaCl, 2 KCl, 1.8 CaCl2, 2 MgCl2), 90K (90 KCl, 8 NaCl, 1.8 CaCl2, 2 MgCl2), were buffered 5 mM HEPES pH 7.4. For K2P recordings, currents we elicited by a 1 second long ramp from −150 to +50 mV from a holding potential of −80 mV (2K), or −100 to +50 mV from a holding potential of 0 mV (90K). For KCNQ2 recordings, currents were elicited by a step protocol from −120 to 60 mV, in 20 mV increments, from a holding potential of −80 mV. […] Currents were elicited by a 1 second long ramp from −150 to +50 mV from a holding potential of −80 mV.

C#Cc1ccc(S(=O)(=O)NC(=O)CCN2c3ccc(N=[N+]=[N-])cc3C3(CCCCC3)c3cc(N=[N+]=[N-])ccc32)cc1 [ML67-151, 1-(2-azido-10-{2-[(4-ethynylbenzene-sulfonyl)carbamoyl]ethyl}-10H-spiro[acridine-9,1′-cyclohexane]-7-yl)triaza-1,2-dien-2-ium]
crosslinking and labeling of TRAAK channel (in words) (purified TRAAK channels): capable of crosslinking and labeling TRAAK channel
% activity at 50 μM (TREK-1): About 50% activity of ML67-33 at 50 μM

Reference: patent US9862684B2, “Modulation of K2P channels” (The Regents of the University of California, priority 2013, dated 2018)
